In test [1] the target is GST-tagged KRAS-G12V (2-169) (Homo sapiens, UniProt P01116, G12V). Briefly: Nucleotide exchange assay (NEA), SOS-mediated, HTRF, KRAS G12V. In kind it is biochemical. The following applies: Table 4; IC50 extracted at 90 min; 80 nM SOS. In outline: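 GST-KRAS-G12V (2-169), 0.25 nM, pre-incubated 1 h at RT with compound, then SOS1cat (564-1049) 80 nM and GTP-DY-647P1 150 nM added in HEPES pH 7.3 buffer with MgCl2 and DTT. HTRF via anti-GST Tb cryptate read over 90 min; IC50 from 4-parameter fit at 90 min, blanked to no-SOS reactions.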

Test [2] concerns the target GST-tagged KRAS-G12D (2-169) (Homo sapiens, UniProt P01116, G12D). As to the kind of experiment: Nucleotide exchange assay (NEA), SOS-mediated, HTRF, KRAS G12D. In kind it is biochemical. The following applies: Table 4; IC50 extracted at 30 min; 20 nM SOScat; read-out: NEA G12D IC50. In outline:
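Compound preincubated 1 h at RT with 0.25 nM GST-KRAS-G12D (2-169) and anti-GST Tb donor, then 20 nM SOS1cat (564-1049) and 150 nM GTP-DY-647P1 added; pH 7.3 HEPES buffer with MgCl2 and DTT. HTRF monitored at RT; % inhibition versus DMSO and no-SOS blank, 4-parameter IC50 taken at 30 min.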
A general note: TR-FRET usually uses a lanthanide donor and a delayed reading to cut background.

What is called IC50 is the point on the concentration scale where inhibition reaches its midpoint.

Chain of GST-tagged KRAS-G12D (2-169) (P01116 2-169 isoform P01116-2 G12D): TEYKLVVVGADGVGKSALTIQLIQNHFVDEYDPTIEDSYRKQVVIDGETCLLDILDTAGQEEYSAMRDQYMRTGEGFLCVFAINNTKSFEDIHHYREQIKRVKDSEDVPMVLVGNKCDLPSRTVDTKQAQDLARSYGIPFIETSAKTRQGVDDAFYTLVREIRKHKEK
Chain of GST-tagged KRAS-G12V (2-169) (P01116 2-169 isoform P01116-2 G12V): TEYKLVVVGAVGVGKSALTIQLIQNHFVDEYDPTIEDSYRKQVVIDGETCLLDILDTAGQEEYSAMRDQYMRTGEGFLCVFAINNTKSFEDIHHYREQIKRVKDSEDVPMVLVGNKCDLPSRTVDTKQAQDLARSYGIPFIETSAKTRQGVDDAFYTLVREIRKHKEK

`CCN(c1nc(OC[C@@]23CCCN2C[C@H](F)C3)nc(N2CC3(C2)SCc2sc(N)c(C#N)c23)n1)C(C)c1cccnc1N` (stereo partly drawn) [Compound 144, 2-amino-1′-[4-[1-(2-amino-3-pyridyl)ethyl-ethyl-amino]-6-[[(2R,8S)-2-fluoro-1,2,3,5,6,7-hexahydropyrrolizin-8-yl]methoxy]-1,3,5-triazin-2-yl]spiro[6H-thieno[3,4-b]thiophene-4,3′-azetidine]-3-carbonitrile]: the concentration for half-maximal inhibition (IC50) in test [1] and in test [2] was below 0.01 µM in each case.

For the compound `CC(=O)CC(=O)N1[C@@H]2CC[C@H]1CN(c1nc(OC[C@@]34CCCN3C[C@H](F)C4)nc(N3CC4(C3)SCc3sc(N)c(C#N)c34)n1)C2` [Compound 145, 2-amino-1′-[4-[[(2R,8S)-2-fluoro-1,2,3,5,6,7-hexahydropyrrolizin-8-yl]methoxy]-6-[(1R,5S)-8-(3-oxobutanoyl)-3,8-diazabicyclo[3.2.1]octan-3-yl]-1,3,5-triazin-2-yl]spiro[6H-thieno[3,4-b]thiophene-4,3′-azetidine]-3-carbonitrile], the IC50 in test [1] was in the range of 0.1 to 1 µM; in test [2] it was 1 to 20 µM.

For `CN(Cc1cnsc1)c1nc(OC[C@@]23CCCN2C[C@H](F)C3)nc(N2CC3(CCc4sc(N)c(C#N)c43)C2)n1` [Compound 147, 2-amino-1′-[4-[[(2R,8S)-2-fluoro-1,2,3,5,6,7-hexahydropyrrolizin-8-yl]methoxy]-6-[isothiazol-4-ylmethyl(methyl)amino]-1,3,5-triazin-2-yl]spiro[5,6-dihydrocyclopenta[b]thiophene-4,3′-azetidine]-3-carbonitrile], the IC50 in test [1] lay within 0.01 to 0.1 µM; in test [2], 0.1 to 1 µM.

On to `CC(c1nccnc1O)N(C)c1nc(OC[C@@]23CCCN2C[C@H](F)C3)nc(N2CC3(CCc4sc(N)c(C#N)c43)C2)n1` (stereo partly drawn) [Compound 150, 2-amino-1′-[4-[[(2R,8S)-2-fluoro-1,2,3,5,6,7-hexahydropyrrolizin-8-yl]methoxy]-6-[1-(3-hydroxypyrazin-2-yl)ethyl-methyl-amino]-1,3,5-triazin-2-yl]spiro[5,6-dihydrocyclopenta[b]thiophene-4,3′-azetidine]-3-carbonitrile], for which the half-maximal inhibitory concentration (IC50) in test [1] lay within 0.1 to 1 µM; in test [2], 1 to 20 µM.

Regarding `N#Cc1c(N)sc2c1C1(CC2)CN(c2nc(OC[C@@]34CCCN3C[C@H](F)C4)nc(N(CCO)Cc3c[nH]nc3Cl)n2)C1` [Compound 151, 2-amino-1′-[4-[(3-chloro-1H-pyrazol-4-yl)methyl-(2-hydroxyethyl)amino]-6-[[(2R,8S)-2-fluoro-1,2,3,5,6,7-hexahydropyrrolizin-8-yl]methoxy]-1,3,5-triazin-2-yl]spiro[5,6-dihydrocyclopenta[b]thiophene-4,3′-azetidine]-3-carbonitrile], the IC50 was 0.1 to 1 µM in test [1] and 1 to 20 µM in test [2].

For the compound `N#Cc1c(N)sc2c1C1(CC2)CN(c2nc(OC[C@@]34CCCN3C[C@H](F)C4)nc(N(CCO)Cc3c(F)ccnc3N)n2)C1` [Compound 154, 2-amino-1′-[4-[(2-amino-4-fluoro-3-pyridyl)methyl-(2-hydroxyethyl)amino]-6-[[(2R,8S)-2-fluoro-1,2,3,5,6,7-hexahydropyrrolizin-8-yl]methoxy]-1,3,5-triazin-2-yl]spiro[5,6-dihydrocyclopenta[b]thiophene-4,3′-azetidine]-3-carbonitrile], the IC50 was below 0.01 µM in test [1] and 0.01 to 0.1 µM in test [2].

On to `CC(c1cncnc1O)N(C)c1nc(OC[C@@]23CCCN2C[C@H](F)C3)nc(N2CC3(CCc4sc(N)c(C#N)c43)C2)n1` (stereo partly drawn) [Compound 155, 2-amino-1′-[4-[[(2R,8S)-2-fluoro-1,2,3,5,6,7-hexahydropyrrolizin-8-yl]methoxy]-6-[1-(4-hydroxypyrimidin-5-yl)ethyl-methyl-amino]-1,3,5-triazin-2-yl]spiro[5,6-dihydrocyclopenta[b]thiophene-4,3′-azetidine]-3-carbonitrile], for which the IC50 in test [1] and in test [2] was 1 to 20 µM throughout.

For the compound `CO/N=C(\C(C)=O)C(=O)N1[C@@H]2CC[C@H]1CN(c1nc(OC[C@@]34CCCN3C[C@H](F)C4)nc(N3CC4(C3)SCc3sc(N)c(C#N)c34)n1)C2` [Compound 161, 2-amino-1′-[4-[[(2R,8S)-2-fluoro-1,2,3,5,6,7-hexahydropyrrolizin-8-yl]methoxy]-6-[(1R,5S)-8-[(2Z)-2-methoxyimino-3-oxo-butanoyl]-3,8-diazabicyclo[3.2.1]octan-3-yl]-1,3,5-triazin-2-yl]spiro[6H-thieno[3,4-b]thiophene-4,3′-azetidine]-3-carbonitrile], the IC50 lay in the range of 0.1 to 1 µM in test [1] and 1 to 20 µM in test [2].

On to `N#Cc1c(N)sc2c1C1(CN(c3nc(OC[C@@]45CCCN4C[C@H](F)C5)nc(Oc4cn[nH]c4)n3)C1)SC2` [Compound 164, 2-amino-1′-[4-[[(2R,8S)-2-fluoro-1,2,3,5,6,7-hexahydropyrrolizin-8-yl]methoxy]-6-(1H-pyrazol-4-yloxy)-1,3,5-triazin-2-yl]spiro[6H-thieno[3,4-b]thiophene-4,3′-azetidine]-3-carbonitrile], for which the IC50 is 0.01 to 0.1 µM in test [1] and 0.1 to 1 µM in test [2].

On to `N#Cc1c(N)sc2c1C1(CN(c3nc(OC[C@@]45CCCN4C[C@H](F)C5)nc(Oc4cc[nH]n4)n3)C1)SC2` [Compound 165, 2-amino-1′-[4-[[(2R,8S)-2-fluoro-1,2,3,5,6,7-hexahydropyrrolizin-8-yl]methoxy]-6-(1H-pyrazol-3-yloxy)-1,3,5-triazin-2-yl]spiro[6H-thieno[3,4-b]thiophene-4,3′-azetidine]-3-carbonitrile], for which the IC50 is 0.1 to 1 µM in test [1] and 1 to 20 µM in test [2].

For the compound `C[C@H](c1cccnc1N)N(C)c1nc(OCC2(N(C)C)CC2)nc(N2CC3(C2)SCc2sc(N)c(C#N)c23)n1` [Compound 181, 2-amino-1′-[4-[[(1R)-1-(2-amino-3-pyridyl)ethyl]-methyl-amino]-6-[[1-(dimethylamino)cyclopropyl]methoxy]-1,3,5-triazin-2-yl]spiro[6H-thieno[2,3-c]thiophene-4,3′-azetidine]-3-carbonitrile], the values for the half-maximal inhibitory concentration (IC50) in test [1] and in test [2] were 0.01 to 0.1 µM and 0.1 to 1 µM, respectively.

`CN(Cc1c(O)ccnc1N)c1nc(OC[C@@]23CCCN2C[C@H](F)C3)nc(N2CC3(C2)SCc2sc(N)c(C#N)c23)n1` [Compound 182, 2-amino-1′-[4-[(2-amino-4-hydroxy-3-pyridyl)methyl-methyl-amino]-6-[[(2R,8S)-2-fluoro-1,2,3,5,6,7-hexahydropyrrolizin-8-yl]methoxy]-1,3,5-triazin-2-yl]spiro[6H-thieno[2,3-c]thiophene-4,3′-azetidine]-3-carbonitrile]: the half-maximal inhibitory concentration (IC50) in test [1] and in test [2] was 0.01 to 0.1 µM in each case.

Consider `N#Cc1c(N)sc2c1C1(CN(c3nc(OCC4(CN5CCOCC5)CC4)nc(N4CCNC[C@@H]4CO)n3)C1)SC2` [Compound 185, (R)-2′-amino-1-(4-(2-(hydroxymethyl)piperazin-1-yl)-6-((1-(morpholinomethyl)cyclopropyl)methoxy)-1,3,5-triazin-2-yl)-6′H-spiro[azetidine-3,4′-thieno[3,4-b]thiophene]-3′-carbonitrile], for which the half-inhibitory concentration (IC50) was 0.1 to 1 µM in test [1] and below 0.01 µM in test [2].

For `N#Cc1c(N)sc2c1C1(CN(c3nc(OCC4(CN5CCOCC5)CC4)nc(N4CCNC[C@H]4CO)n3)C1)SC2` [Compound 186, (S)-2′-amino-1-(4-(2-(hydroxymethyl)piperazin-1-yl)-6-((1-(morpholinomethyl)cyclopropyl)methoxy)-1,3,5-triazin-2-yl)-6′H-spiro[azetidine-3,4′-thieno[3,4-b]thiophene]-3′-carbonitrile], the IC50 in test [1] was 0.01 to 0.1 µM; in test [2] it was below 0.01 µM.

`N#Cc1c(N)sc2c1C1(CN(c3nc(OC[C@@]45CCCN4C[C@H](F)C5)nc(N(CC(=O)O)Cc4cccnc4N)n3)C1)SC2` [Compound 187, 2-[[4-(2-amino-3-cyano-spiro[6H-thieno[3,4-b]thiophene-4,3′-azetidine]-1′-yl)-6-[[(2R,8S)-2-fluoro-1,2,3,5,6,7-hexahydropyrrolizin-8-yl]methoxy]-1,3,5-triazin-2-yl]-[(2-amino-3-pyridyl)methyl]amino]acetic acid]: the IC50 in test [1] was below 0.01 µM; in test [2], 0.01 to 0.1 µM.

Regarding `CC(c1n[nH]cc1N)N(C)c1nc(OC[C@@]23CCCN2C[C@H](F)C3)nc(N2CC3(C2)SCc2sc(N)c(C#N)c23)n1` (stereo partly drawn) [Compound 192, 2-amino-1′-[4-[1-(4-amino-1H-pyrazol-3-yl)ethyl-methyl-amino]-6-[[(2R,8S)-2-fluoro-1,2,3,5,6,7-hexahydropyrrolizin-8-yl]methoxy]-1,3,5-triazin-2-yl]spiro[6H-thieno[2,3-c]thiophene-4,3′-azetidine]-3-carbonitrile], the concentration for half-maximal inhibition (IC50) in test [1] fell in the range of 0.01 to 0.1 µM; in test [2] it was 0.1 to 1 µM.

As for `N#Cc1c(N)sc2c1C1(CN(c3nc(OCC4(CN5CCOCC5)CC4)nc(N4CCNC[C@@H]4C(F)F)n3)C1)SC2` [Compound 193, (R)-2′-amino-1-(4-(2-(difluoromethyl)piperazin-1-yl)-6-((1-(morpholinomethyl)cyclopropyl)methoxy)-1,3,5-triazin-2-yl)-6′H-spiro[azetidine-3,4′-thieno[3,4-b]thiophene]-3′-carbonitrile], the 50% inhibitory concentration (IC50) in test [1] was 0.01 to 0.1 µM; in test [2] it was below 0.01 µM.

These data come from patent US12421254B2, “KRAS modulators and uses thereof” (Quanta Therapeutics, Inc., priority 2023, dated 2025).
